Measured values reported in PubChem BioAssay AID1919010 (Molecular Pharmacology Branch, DTP, NCI, 2023).

Tested on: Hs578T complex spheroid growth, percent test/control
Test: Anticancer human tumor Hs578T cell line growth inhibition [AhR];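 note: luminescent viability signal as a proxy for spheroid growth; spheroids exposed to agents for one week after three days of growth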
Settings: for IC50: curve of first compound; for viability, T/C: stronger effect = lower value
Method in brief: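 Complex tumor spheroids co-cultured with HUVEC and human MSC stroma; AhR antagonists tested in combination with standard-of-care and investigational agents. Top concentration at or near clinical Cmax (else 10 microM), half-log dilutions; growth expressed as percent test/control.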

[1] = second compound 0.1 µM, first compound 0.0316 µM
[2] = second compound 0.1 µM, first compound 0.1 µM
[3] = second compound 0.1 µM, first compound 0.316 µM
[4] = second compound 0.1 µM, first compound 1 µM
[5] = second compound 0.1 µM, first compound 3.16 µM
[6] = second compound 0.1 µM, first compound 10 µM
[7] = second compound 0.316 µM, first compound 0.0316 µM
[8] = second compound 0.316 µM, first compound 0.1 µM
[9] = second compound 0.316 µM, first compound 0.316 µM
[10] = second compound 0.316 µM, first compound 1 µM
[11] = second compound 0.316 µM, first compound 3.16 µM
[12] = second compound 0.316 µM, first compound 10 µM
[13] = second compound 1 µM, first compound 0.0316 µM
[14] = second compound 1 µM, first compound 0.1 µM
[15] = second compound 1 µM, first compound 0.316 µM
[16] = second compound 1 µM, first compound 1 µM
[17] = second compound 1 µM, first compound 3.16 µM
[18] = second compound 1 µM, first compound 10 µM
[19] = second compound 3.16 µM, first compound 0.0316 µM
[20] = second compound 3.16 µM, first compound 0.1 µM
[21] = second compound 3.16 µM, first compound 0.316 µM
[22] = second compound 3.16 µM, first compound 1 µM
[23] = second compound 3.16 µM, first compound 3.16 µM
[24] = second compound 3.16 µM, first compound 10 µM
[25] = second compound 10 µM, first compound 0.0316 µM
[26] = second compound 10 µM, first compound 0.1 µM
[27] = second compound 10 µM, first compound 0.316 µM
[28] = second compound 10 µM, first compound 1 µM
[29] = second compound 10 µM, first compound 3.16 µM
[30] = second compound 10 µM, first compound 10 µM

NS(=O)(=O)OCC1CC(n2ccc3c(NC4CCc5ccccc54)ncnc32)CC1O (stereo not given) + Cc1cncc(-c2nc(NCCc3c[nH]c4ccccc34)c3ncn(C(C)C)c3n2)c1
IC50 (second compound 0.1 µM): 2.9 µM
IC50 (second compound 0.316 µM): 2.84 µM
IC50 (second compound 1 µM): 2.14 µM
IC50 (second compound 3.16 µM): 0.774 µM
IC50 (second compound 10 µM): < 0.0316 µM
viability, T/C [1]: 114%
viability, T/C [2]: 94.9%
viability, T/C [3]: 83.3%
viability, T/C [4]: 60.2%
viability, T/C [5]: 51%
viability, T/C [6]: 35.1%
viability, T/C [7]: 128%
viability, T/C [8]: 100%
viability, T/C [9]: 84.2%
viability, T/C [10]: 60.6%
viability, T/C [11]: 48.2%
viability, T/C [12]: 39.6%
viability, T/C [13]: 115%
viability, T/C [14]: 98.9%
viability, T/C [15]: 99.4%
viability, T/C [16]: 59.4%
viability, T/C [17]: 48.3%
viability, T/C [18]: 36.6%
viability, T/C [19]: 69.2%
viability, T/C [20]: 66%
viability, T/C [21]: 66.1%
viability, T/C [22]: 45.4%
viability, T/C [23]: 35.4%
viability, T/C [24]: 38.3%
viability, T/C [25]: 6.36%
viability, T/C [26]: 6.52%
viability, T/C [27]: 7.75%
viability, T/C [28]: 5.11%
viability, T/C [29]: 5.06%
viability, T/C [30]: 3.64%

COc1cc(C2c3cc4c(cc3C(OC3OC5COC(C)OC5C(O)C3O)C3COC(=O)C23)OCO4)cc(OC)c1O (stereo not given) + Cc1cncc(-c2nc(NCCc3c[nH]c4ccccc34)c3ncn(C(C)C)c3n2)c1
IC50 (second compound 0.1 µM): > 10 µM
IC50 (second compound 0.316 µM): > 10 µM
IC50 (second compound 1 µM): > 10 µM
IC50 (second compound 3.16 µM): 1.86 µM
IC50 (second compound 10 µM): < 0.0316 µM
viability, T/C [1]: 108%
viability, T/C [2]: 101%
viability, T/C [3]: 89%
viability, T/C [4]: 80.7%
viability, T/C [5]: 88.5%
viability, T/C [6]: 63.9%
viability, T/C [7]: 108%
viability, T/C [8]: 101%
viability, T/C [9]: 94.3%
viability, T/C [10]: 77%
viability, T/C [11]: 76.9%
viability, T/C [12]: 61.3%
viability, T/C [13]: 96.9%
viability, T/C [14]: 101%
viability, T/C [15]: 93%
viability, T/C [16]: 85.8%
viability, T/C [17]: 73.2%
viability, T/C [18]: 63%
viability, T/C [19]: 64%
viability, T/C [20]: 64.1%
viability, T/C [21]: 61.5%
viability, T/C [22]: 49%
viability, T/C [23]: 49.3%
viability, T/C [24]: 37.8%
viability, T/C [25]: 6.72%
viability, T/C [26]: 7.12%
viability, T/C [27]: 5.72%
viability, T/C [28]: 3.77%
viability, T/C [29]: 4.01%
viability, T/C [30]: 4.25%

CCN(c1cc(-c2ccc(CN3CCOCC3)cc2)cc(C(=O)NCc2c(C)cc(C)[nH]c2=O)c1C)C1CCOCC1 + Cc1cncc(-c2nc(NCCc3c[nH]c4ccccc34)c3ncn(C(C)C)c3n2)c1
IC50 (second compound 0.1 µM): > 3 µM
IC50 (second compound 0.316 µM): > 3 µM
IC50 (second compound 1 µM): > 3 µM
IC50 (second compound 3.16 µM): < 0.00949 µM
IC50 (second compound 10 µM): < 0.00949 µM
viability, T/C (second compound 0.1 µM, first compound 0.00949 µM): 111%
viability, T/C (second compound 0.1 µM, first compound 0.03 µM): 95.9%
viability, T/C (second compound 0.1 µM, first compound 0.0949 µM): 101%
viability, T/C (second compound 0.1 µM, first compound 0.3 µM): 107%
viability, T/C (second compound 0.1 µM, first compound 0.949 µM): 94.4%
viability, T/C (second compound 0.1 µM, first compound 3 µM): 106%
viability, T/C (second compound 0.316 µM, first compound 0.00949 µM): 111%
viability, T/C (second compound 0.316 µM, first compound 0.03 µM): 99.9%
viability, T/C (second compound 0.316 µM, first compound 0.0949 µM): 106%
viability, T/C (second compound 0.316 µM, first compound 0.3 µM): 96.6%
viability, T/C (second compound 0.316 µM, first compound 0.949 µM): 99.5%
viability, T/C (second compound 0.316 µM, first compound 3 µM): 90.7%
viability, T/C (second compound 1 µM, first compound 0.00949 µM): 103%
viability, T/C (second compound 1 µM, first compound 0.03 µM): 102%
viability, T/C (second compound 1 µM, first compound 0.0949 µM): 101%
viability, T/C (second compound 1 µM, first compound 0.3 µM): 93.5%
viability, T/C (second compound 1 µM, first compound 0.949 µM): 105%
viability, T/C (second compound 1 µM, first compound 3 µM): 93.3%
viability, T/C (second compound 3.16 µM, first compound 0.00949 µM): 49.8%
viability, T/C (second compound 3.16 µM, first compound 0.03 µM): 46.4%
viability, T/C (second compound 3.16 µM, first compound 0.0949 µM): 51.5%
viability, T/C (second compound 3.16 µM, first compound 0.3 µM): 48%
viability, T/C (second compound 3.16 µM, first compound 0.949 µM): 46%
viability, T/C (second compound 3.16 µM, first compound 3 µM): 51.7%
viability, T/C (second compound 10 µM, first compound 0.00949 µM): 6.41%
viability, T/C (second compound 10 µM, first compound 0.03 µM): 5.56%
viability, T/C (second compound 10 µM, first compound 0.0949 µM): 7.45%
viability, T/C (second compound 10 µM, first compound 0.3 µM): 5.08%
viability, T/C (second compound 10 µM, first compound 0.949 µM): 5.95%
viability, T/C (second compound 10 µM, first compound 3 µM): 3.67%
